The supplement of paper PMC10307832

What was measured:
Test in all cases: relative viability (nuclei count vs DMSO), 5 days (fraction); higher = more cells survive
[1] = compound: CC1CC(=O)N(C2=CN=C(N=C2N1C3CCCC3)NC4=C(C=C(C=C4)C(=O)NC5CCN(CC5)C)OC)C [NPK76-II-72-1] + Nc1ncn([C@H]2C[C@H](O)[C@@H](CO)O2)c(=O)n1 [Decitabine] (partner 2 µM)
Method in brief: (§1)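 Lung cancer cell lines were seeded in 1536-well plates and dosed by pin tool the next day, with either a single drug or a fixed anchor-drug dose combined with five library-drug doses (not always all listed) spaced in √10 steps. Five days later, one step fixed the cells and stained their nuclei (final 0.05% Triton X-100, 1% formaldehyde, 1 ug/ml Hoechst), and nuclei were counted on 4× images. Relative viability is the nuclei count in treated wells divided by the count in vehicle wells, and each value is the median of duplicate plates.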

[2] = compound: CC1CC(=O)N(C2=CN=C(N=C2N1C3CCCC3)NC4=C(C=C(C=C4)C(=O)NC5CCN(CC5)C)OC)C [NPK76-II-72-1] + C[C@@H](Oc1cc(-c2cnn(C3CCNCC3)c2)cnc1N)c1c(Cl)ccc(F)c1Cl [Crizotinib] (partner 1 µM)
Method in brief: as §1

BI-2536 + Tozasertib = compound: CC[C@@H]1C(=O)N(C)c2cnc(Nc3ccc(C(=O)NC4CCN(C)CC4)cc3OC)nc2N1C1CCCC1 [BI-2536] + Cc1cc(Nc2cc(N3CCN(C)CC3)nc(Sc3ccc(NC(=O)C4CC4)cc3)n2)n[nH]1 [Tozasertib] (partner 0.1 µM)
Method in brief: as §1

BI-2536 + Vorinostat = compound: CC[C@@H]1C(=O)N(C)c2cnc(Nc3ccc(C(=O)NC4CCN(C)CC4)cc3OC)nc2N1C1CCCC1 [BI-2536] + O=C(CCCCCCC(=O)Nc1ccccc1)NO [Vorinostat] (partner 1 µM)
Method in brief: as §1

Row | Cell Line | relative viability ([1]; first compound 0.01 µM) | relative viability ([1]; first compound 0.03162 µM) | relative viability ([1]; first compound 0.1 µM) | relative viability ([1]; first compound 0.3162 µM) | relative viability ([1]; first compound 1 µM) | relative viability ([2]; first compound 0.01 µM) | relative viability ([2]; first compound 0.03162 µM) | relative viability ([2]; first compound 0.1 µM) | relative viability ([2]; first compound 0.3162 µM) | relative viability ([2]; first compound 1 µM) | relative viability (BI-2536 + Tozasertib; first compound 0.01 µM) | relative viability (BI-2536 + Tozasertib; first compound 0.03162 µM) | relative viability (BI-2536 + Tozasertib; first compound 0.1 µM) | relative viability (BI-2536 + Tozasertib; first compound 0.3162 µM) | relative viability (BI-2536 + Tozasertib; first compound 1 µM) | relative viability (BI-2536 + Vorinostat; first compound 0.01 µM) | relative viability (BI-2536 + Vorinostat; first compound 0.03162 µM) | relative viability (BI-2536 + Vorinostat; first compound 0.1 µM) | relative viability (BI-2536 + Vorinostat; first compound 0.3162 µM) | relative viability (BI-2536 + Vorinostat; first compound 1 µM)
1 | HCC-44 | 0.991 | 1.08 | 0.931 | 0.922 | 0.968 | 0.734 | 0.772 | 0.827 | 0.795 | 0.846 | 0.967 | 0.333 | 0.262 | 0.143 | 0.216 | 1.19 | 1.01 | 0.847 | 0.346 | 0.278
2 | HCC-827 | 0.282 | 0.367 | 0.333 | 0.288 | 0.35 | 1.01 | 0.912 | 0.902 | 0.895 | 0.892 | 0.45 | 0.414 | 0.428 | 0.376 | 0.308 | 0.884 | 0.943 | 0.665 | 0.222 | 0.227
3 | NCI-H1623 |  |  |  |  |  |  |  |  |  |  | 0.478 | 0.448 | 0.383 | 0.402 | 0.328 |  |  |  |  | 
4 | NCI-H2347 | 0.607 | 0.578 | 0.614 | 0.562 | 0.635 | 0.742 | 0.698 | 0.715 | 0.718 | 0.944 |  | 0.503 | 0.465 | 0.295 | 0.352 | 0.509 | 0.591 | 0.456 | 0.436 | 0.336
5 | PC-14 | 0.206 | 0.286 | 0.226 | 0.259 | 0.222 | 0.872 | 0.944 | 0.904 | 0.809 | 1.03 | 0.577 | 0.568 | 0.548 | 0.045 | 0.0586 | 0.809 | 0.387 | 0.0698 | 0.0322 | 0.0218
6 | NCI-H1651 | 0.611 | 0.645 | 0.606 | 0.589 | 0.604 | 0.885 | 0.881 | 0.871 | 0.881 | 0.868 | 0.685 | 0.795 | 0.429 | 0.104 | 0.0989 | 0.492 | 0.553 | 0.328 | 0.123 | 0.0939
7 | HARA | 0.643 | 0.57 | 0.616 |  | 0.451 | 0.993 | 1.2 | 1.03 | 1.01 | 1.24 | 0.109 | 0.127 | 0.114 | 0.0998 | 0.128 | 0.626 | 0.511 | 0.422 | 0.0897 | 0.108
8 | NCI-H1650 | 0.377 | 0.43 | 0.435 | 0.423 | 0.347 | 1.01 | 1.07 | 0.861 | 0.917 | 1.11 | 0.403 | 0.283 | 0.252 | 0.179 | 0.196 | 0.624 | 0.555 | 0.276 | 0.169 | 0.142
9 | NCI-H1395 | 0.758 | 0.619 | 0.628 | 0.693 | 0.753 |  |  |  |  |  | 0.668 | 0.729 | 0.642 | 0.399 | 0.285 | 0.669 | 0.431 | 0.285 | 0.311 | 0.356
10 | LU99A | 0.897 | 0.833 | 0.75 | 0.928 | 0.916 | 0.563 | 0.596 | 0.649 | 0.508 | 0.584 | 0.272 | 0.235 | 0.248 | 0.281 | 0.227 | 0.406 | 0.405 | 0.151 | 0.162 | 0.163
11 | NCI-H1355 | 0.349 | 0.359 | 0.338 | 0.315 | 0.344 | 0.858 | 1.06 | 1.13 | 0.841 | 1.16 | 0.528 | 0.434 | 0.295 | 0.212 | 0.195 | 0.584 | 0.66 | 0.37 | 0.171 | 0.152
12 | HCC-78 | 0.711 | 0.696 | 0.549 | 0.699 | 0.653 |  | 0.33 | 0.355 |  | 0.368 | 0.405 | 0.304 | 0.325 | 0.253 | 0.259 | 0.421 | 0.49 | 0.379 | 0.268 | 0.27
13 | NCI-H1563 |  |  |  |  |  | 0.875 | 0.905 | 0.84 | 0.825 | 0.932 |  |  |  |  |  |  |  |  |  | 
14 | HCC-15 | 0.559 | 0.675 | 0.638 | 0.682 | 0.671 | 0.773 | 0.874 | 0.846 | 0.756 | 0.834 | 0.461 | 0.389 | 0.195 | 0.14 | 0.108 | 0.675 | 0.769 | 0.615 | 0.137 | 0.141
15 | EKVX | 0.329 | 0.353 | 0.34 |  | 0.387 | 0.787 | 1.16 | 0.936 | 0.832 | 0.922 | 0.321 | 0.482 | 0.394 | 0.202 | 0.132 | 0.875 | 0.729 | 0.676 | 0.407 | 0.208
16 | NCI-H2087 | 0.226 | 0.33 | 0.3 | 0.217 | 0.36 | 0.844 | 0.786 | 0.82 | 0.902 | 1.01 | 0.25 | 0.214 | 0.155 | 0.119 | 0.12 | 0.731 | 0.773 | 0.229 | 0.0706 | 0.124
17 | LK-2 | 0.379 | 0.246 | 0.265 | 0.201 | 0.407 | 0.22 | 0.247 | 0.238 |  | 0.241 | 0.152 | 0.151 | 0.173 | 0.187 | 0.185 | 0.181 | 0.242 | 0.15 | 0.104 | 0.155
18 | NCI-H1437 | 0.579 | 0.523 | 0.531 | 0.558 | 0.641 | 0.843 | 0.956 | 0.834 | 0.746 | 0.967 | 0.465 | 0.432 | 0.389 | 0.333 | 0.237 | 0.809 | 0.751 | 0.394 | 0.301 | 0.312
